{"source": "patent US20240366487A1", "about": "“ANTI-AGING COMPOSITIONS FOR SENSITIVE SKIN” (Baek Clinical Inc., priority 2023, published 2024)", "system": "skin of human subjects", "assay": "Human Repeat Insult Patch Testing (HRIPT)", "format": "in vivo", "settings": "positive control, 71 subjects", "procedure": "The study duration was 6 weeks and 71 male and female subjects, ranging in age from 18 to 65, completed the study. Subjects were requested to bathe or wash as usual before arrival at the facility Patches containing the test material were then affixed directly to the skin of the intrascapular regions of the back, to the right or left of the midline and subjects were dismissed with instructions not to wet or expose the test area to direct sunlight. Patches remained in place for 48 hours after the first application. Subjects were instructed not to remove the patches prior to their 48-hour scheduled visit, thereafter, subjects were instructed to remove patches 24 hours after application for the remainder of the study. […] Prior to each reapplication, the test sites were evaluated by trained laboratory personnel. Following a 10-14 day rest period a retest/challenge dose was applied once to a previously unexposed test site. Test sites were evaluated by trained laboratory personnel 48 and 96 hours after application. In the event of a reaction, the area of erythema and edema were measured. Edema is estimated by the evaluation of the skin with respect to the contour of the unaffected normal skin. Subjects were instructed to report any delayed reactions that might occur after the final reading."}
{"compound": "CCCCCCCCCCCCOS(=O)(=O)[O-].[Na+]", "note": "[1.0% Sodium Lauryl Sulfate Solution, Sodium Lauryl Sulfate]", "values": [{"measurement": "subjects with a Grade 1 reaction", "value": 3, "unit": "subjects"}, {"measurement": "subjects with a Grade 2 reaction", "value": 1, "unit": "subject"}]}
